From patent US20230242553A1, “PROCESS FOR THE PREPARATION OF 1-METHYL-6-[6-R2-5-METHYL-8-(METHYLAMINO)-4-[ (3AS,6AS)-5-METHYL-2,3,3A,4,6,6A-HEXAHYDROPYRROLO[2,3-C]PYRROL-1-YL]-9H-PYRIDO[2,3-B]INDOL-3-YL]-4-OXO-1,8-NAPHTHYRIDINE-3-CARBOXYLIC ACID HYDROCHLORIDE” (Hoffmann-La Roche Inc., priority 2020, published 2023)
Structures can show the parent of a compound that is named as a salt.

Assay: Stability experiment of final compound: solid in sealed vial kept in oven, purity checked by UPLC
Format: physicochemical
Details: for Stability Result Solid at 20° C./7day (purity) / Stability Result Solid at 100° C./1 day (purity): 10 mg solid in 4 mL vial with sealed cap; for Stability Result Solid at 20° C./7day (purity): 7 days; for Stability Result Solid at 20° C./7day (purity) / Stability Result Solid at 100° C./1 day (purity) / Initial Purity: purity by UPLC; for Stability Result Solid at 100° C./1 day (purity): oven 100° C.; for Initial Purity: solid before storage; for Stability of HCl salt compared with freebase form: conclusion in words from Table 2
Source text: Stability Experiment of Final Compound of Formula (I)
Freebase of Example 4: 6-[5-cyano-6-fluoro-8-(methylamino)-4-[(3aS,6aS)-5-methyl-2,3,3a,4,6,6a-hexahydropyrrolo[2,3-c]pyrrol-1-yl]-9H-pyrido[2,3-b]indol-3-yl]-1-methyl-4-oxo-1,8-naphthyridine-3-carboxylic acid; initial purity: 99.16%
HCl salt compound (Example 4): 6-[5-cyano-6-fluoro-8-(methylamino)-4-[(3aS,6aS)-5-methyl-2,3,3a,4,6,6a-hexahydropyrrolo[2,3-c]pyrrol-1-yl]-9H-pyrido[2,3-b]indol-3-yl]-1-methyl-4-oxo-1,8-naphthyridine-3-carboxylic acid; hydrochloride; initial purity: 98.50%
Freebase of Example 8: 6-[5,6-difluoro-8-(methylamino)-4-[(3aS,6aS)-5-methyl-2,3,3a,4,6,6a-hexahydropyrrolo[2,3-c]pyrrol-1-yl]-9H-pyrido[2,3-b]indol-3-yl]-1-methyl-4-oxo-1,8-naphthyridine-3-carboxylic acid; initial purity: 97.96%
HCl salt compound (Example 8): 6-[5,6-difluoro-8-(methylamino)-4-[(3aS,6aS)-5-methyl-2,3,3a,4,6,6a-hexahydropyrrolo[2,3-c]pyrrol-1-yl]-9H-pyrido[2,3-b]indol-3-yl]-1-methyl-4-oxo-1,8-naphthyridine-3-carboxylic acid; hydrochloride; initial purity: 97.80%
Condition: 10 mg of compound in 4 mL vial with sealed cap. Keep in oven at certain temperature for certain days. Then, the purity of solid was checked by UPLC.

Stability Result Solid at 20° C./7day (purity) [%] | Stability Result Solid at 100° C./1 day (purity) [%] | Initial Purity [%] | Stability Result Solid at 20° C./7day (purity) (dihydrochloride) [%] | Stability Result Solid at 100° C./1 day (purity) (dihydrochloride) [%] | Stability of HCl salt compared with freebase form | Structure (SMILES)
96.72 | 91.08 | 97.96 | – | – | – | CNc1cc(F)c(F)c2c1[nH]c1ncc(-c3cnc4c(c3)c(=O)c(C(=O)O)cn4C)c(N3CC[C@H]4CN(C)C[C@H]43)c12 [Freebase of Example 8, 6-[5,6-difluoro-8-(methylamino)-4-[(3aS,6aS)-5-methyl-2,3,3a,4,6,6a-hexahydropyrrolo[2,3-c]pyrrol-1-yl]-9H-pyrido[2,3-b]indol-3-yl]-1-methyl-4-oxo-1,8-naphthyridine-3-carboxylic acid]
95.73 | 93.35 | 99.16 | – | – | – | CNc1cc(F)c(C#N)c2c1[nH]c1ncc(-c3cnc4c(c3)c(=O)c(C(=O)O)cn4C)c(N3CC[C@H]4CN(C)C[C@H]43)c12 [Freebase of Example 4, 6-[5-cyano-6-fluoro-8-(methylamino)-4-[(3aS,6aS)-5-methyl-2,3,3a,4,6,6a-hexahydropyrrolo[2,3-c]pyrrol-1-yl]-9H-pyrido[2,3-b]indol-3-yl]-1-methyl-4-oxo-1,8-naphthyridine-3-carboxylic acid]
– | – | 98.50 | 98.67 | 98.48 | much more stable than its freebase form | CNc1cc(F)c(C#N)c2c1[nH]c1ncc(-c3cnc4c(c3)c(=O)c(C(=O)O)cn4C)c(N3CC[C@H]4CN(C)C[C@H]43)c12 [HCl salt compound (Example 4), 6-[5-Cyano-6-fluoro-8-(methylamino)-4-[(3aS,6aS)-5-methyl-2,3,3a,4,6,6a-hexahydropyrrolo[2,3-c]pyrrol-1-yl]-9H-pyrido[2,3-b]indol-3-yl]-1-methyl-4-oxo-1,8-naphthyridine-3-carboxylic acid; dihydrochloride]
– | – | 97.80 | 97.78 | 97.77 | much more stable than its freebase form | CNc1cc(F)c(F)c2c1[nH]c1ncc(-c3cnc4c(c3)c(=O)c(C(=O)O)cn4C)c(N3CC[C@H]4CN(C)C[C@H]43)c12 [HCl salt compound (Example 8), 6-[5,6-Difluoro-8-(methylamino)-4-[(3aS,6aS)-5-methyl-2,3,3a,4,6,6a-hexahydropyrrolo[2,3-c]pyrrol-1-yl]-9H-pyrido[2,3-b]indol-3-yl]-1-methyl-4-oxo-1,8-naphthyridine-3-carboxylic acid; dihydrochloride]
